Results from patent US9180164B2, “Compounds and methods of modulating angiogenesis” (THE CLEVELAND CLINIC FOUNDATION, priority 2011, dated 2015).
Where no end group is shown, it is not given here. [ ]: non-standard residue; d: D form. Gla = N[C@@H](CC(C(=O)O)C(=O)O)C(=O)O

Experiments:
[1] = system: human melanoma cells (WM-164); assay: Apoptosis in melanoma cells; format: cell-based; conditions: 100 μM
Experimental: To the examine the effect of beta-3 integrin cytoplasmic domain inhibitory peptides on tumor progressino we treated human melanoma cells (WM-164) with either 100 μM of control peptide or with equal amount of inhibiting peptide 07-240 (HIV-TAT-(NPLXK) (SEQ ID NO: 7)), inhibiting peptide 07-241 (HIV-TAT-(NPLDK) (SEQ ID NO: 9)), inhibiting peptide 07-243 (HIV-TAT-(NITXR) (SEQ ID NO: 8)), and inhibiting peptide 07-244 (HIV-TAT-(NITDR) (SEQ ID NO: 10)), where X is γ-carboxyglutamic acid.

[2] = system: WT mouse aortic rings; assay: Mouse aortic ring angiogenesis; format: cell-based; conditions: 50 μM, in the presence of VEGF, 1 week
Experimental: Thoracic aortas from WT and DiYF mice were removed under aseptic conditions and spliced into 1 mm thick rings. Thoracic aortic rings were placed between two layers of growth factor depleted Matrigel and allowed to solidify at room temperature. Matrigels were overlaid with either with DMEM or endothelial growth medium with or without VEGF (40 ng/ml). Microvessel outgrowth was visualized by phase contrast microscopy and numbers of vessels growing from each aortic ring were counted and photographed every two days using Leica phase contrast microscope.
To examine the effect of cyclic inhibiting peptides on mouse aortic ring angiogensis, thoracic aortas from WT mice were removed under aseptic conditions and spliced into 1 mm thick rings. Thoracic aortic rings were placed between two layers of growth factor depleted Matrigel and allowed to solidify at room temperature. Matrigels were administered VEGF and 50 μM control peptides or with equal amounts of inhibiting peptide 1 (RR cyclic (NPLXK) (SEQ ID NO: 39), disulfide bridge cycle), inhibiting peptide 2 (RR cyclic (NITXR) (SEQ ID NO: 40), disulfide bridge cycle), inhibiting peptide 3 (RRRKKRKRRR cyclic (NPLXK) (SEQ ID NO: 41), disulfide bridge cycle), and inhibiting peptide 4 (RRRKKRKRRR cyclic (NITXR) (SEQ ID NO: 42), disulfide bridge cycle), where X is γ-carboxyglutamic acid. Microvessel outgrowth was visualized by phase contrast microscopy and numbers of vessels growing from each aortic ring were counted and photographed every two days using Leica phase contrast microscope after 1 week.

[3] = system: subcutaneously implanted tumors; assay: Progression of subcutaneously implanted tumors; format: in vivo, mice; conditions: 100 μM
Experimental: To the examine the effect of beta-3 integrin cytoplasmic domain inhibitory peptides on tumor progressino we subcutaneously implanted tumors in mice and then treated the mice with either 100 μM of control peptide or with equal amount of inhibiting peptide 1 (RR cyclic (NPLXK) (SEQ ID NO: 7), disulfide bridge cycle), inhibiting peptide 2 (RR cyclic (NITXR) (SEQ ID NO: 8), disulfide bridge cycle), inhibiting peptide 3 ([…] cyclic (NPLXK) (SEQ ID NO: 7), disulfide bridge cycle), inhibiting peptide 4 ([…] cyclic (NITXR) (SEQ ID NO: 8), disulfide bridge cycle), inhibiting peptide 5 (RR linear (NPLXK) (SEQ ID NO: 7)); and inhibiting peptide 6 (RR linear (NITXR) (SEQ ID NO: 8)), where X is γ-carboxyglutamic acid.

[4] = biological target: T1, αvβ3 integrin (Mus musculus, UniProt O54890+P43406); assay: Fibrinogen binding assay (FACS); format: cell-based; conditions: WT EC; 20 ng/ml VEGF or 1 mM MnCl2
T1 construct: endogenous in cells; host or cells: primary mouse lung endothelial cells
T1 sequence (O54890 26-787): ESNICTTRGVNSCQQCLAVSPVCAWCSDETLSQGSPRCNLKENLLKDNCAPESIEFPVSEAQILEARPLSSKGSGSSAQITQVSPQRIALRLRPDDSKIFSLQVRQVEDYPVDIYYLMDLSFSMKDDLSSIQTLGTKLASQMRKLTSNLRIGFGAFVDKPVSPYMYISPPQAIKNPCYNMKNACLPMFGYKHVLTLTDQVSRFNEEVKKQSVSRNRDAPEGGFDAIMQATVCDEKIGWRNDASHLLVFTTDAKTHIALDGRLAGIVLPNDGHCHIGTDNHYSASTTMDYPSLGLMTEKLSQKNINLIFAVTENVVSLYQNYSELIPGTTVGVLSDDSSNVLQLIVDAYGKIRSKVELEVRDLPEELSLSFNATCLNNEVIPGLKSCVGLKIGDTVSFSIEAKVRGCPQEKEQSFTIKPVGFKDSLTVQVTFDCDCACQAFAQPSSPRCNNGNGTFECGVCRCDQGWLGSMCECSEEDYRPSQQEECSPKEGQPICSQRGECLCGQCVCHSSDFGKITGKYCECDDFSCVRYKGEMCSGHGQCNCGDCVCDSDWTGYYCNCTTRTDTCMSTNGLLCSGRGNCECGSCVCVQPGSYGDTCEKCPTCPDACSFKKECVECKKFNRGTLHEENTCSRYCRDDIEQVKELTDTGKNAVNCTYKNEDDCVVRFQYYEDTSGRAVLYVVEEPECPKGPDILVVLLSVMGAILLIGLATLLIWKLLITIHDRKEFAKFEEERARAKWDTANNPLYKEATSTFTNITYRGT
T1 sequence (P43406 31-885 limits assumed): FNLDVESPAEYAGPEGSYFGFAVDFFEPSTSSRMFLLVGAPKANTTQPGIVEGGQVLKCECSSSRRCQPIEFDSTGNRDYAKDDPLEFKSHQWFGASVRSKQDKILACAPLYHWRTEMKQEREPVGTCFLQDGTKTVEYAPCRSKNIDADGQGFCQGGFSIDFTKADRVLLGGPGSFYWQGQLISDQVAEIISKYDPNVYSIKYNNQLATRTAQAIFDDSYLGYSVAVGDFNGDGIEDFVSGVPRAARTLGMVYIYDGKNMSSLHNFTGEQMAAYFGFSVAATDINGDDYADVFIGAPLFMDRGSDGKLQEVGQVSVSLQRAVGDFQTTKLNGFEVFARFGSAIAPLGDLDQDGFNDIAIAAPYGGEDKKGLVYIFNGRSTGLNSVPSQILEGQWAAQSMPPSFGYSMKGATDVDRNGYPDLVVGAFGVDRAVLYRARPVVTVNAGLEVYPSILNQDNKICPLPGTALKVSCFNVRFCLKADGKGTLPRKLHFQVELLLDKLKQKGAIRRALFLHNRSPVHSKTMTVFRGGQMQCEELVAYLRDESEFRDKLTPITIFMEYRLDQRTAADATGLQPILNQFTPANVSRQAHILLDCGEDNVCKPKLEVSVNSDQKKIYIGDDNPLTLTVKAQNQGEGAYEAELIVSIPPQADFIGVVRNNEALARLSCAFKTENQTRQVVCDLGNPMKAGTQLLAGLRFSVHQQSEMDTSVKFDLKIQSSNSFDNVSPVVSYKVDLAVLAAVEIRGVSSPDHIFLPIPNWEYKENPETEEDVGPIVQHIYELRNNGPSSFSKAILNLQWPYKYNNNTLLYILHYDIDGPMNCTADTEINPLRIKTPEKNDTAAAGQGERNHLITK
T1 sequence (P43406 887-1044 limits assumed): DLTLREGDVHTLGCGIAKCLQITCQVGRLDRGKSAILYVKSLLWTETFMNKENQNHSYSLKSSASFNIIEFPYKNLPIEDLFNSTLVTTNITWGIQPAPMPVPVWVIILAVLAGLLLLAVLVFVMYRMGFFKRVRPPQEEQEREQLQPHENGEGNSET
Experimental: (§1) To assess fibrinogen binding, semiconfluent wild type and DiYF mouse lung endothelial cells were serum starved for 4 h and further induced with 20 ng/ml VEGF-165, 20 ng/ml b-FGF or 1 mm MnC12. Fluorescein isothiocyanate (FITC)-labeled fibrinogen was added at a final concentration of 200 nM for 45 min. […] Fluorescence-activated cell sorting (FACS) was performed using a FACS Calibur (Becton Dickinson, San Jose, Calif.) and data were analyzed using CellQuest software program.

[5] = system: αvβ3 integrin; assay: Fibrinogen binding assay (FACS); format: cell-based, mouse; conditions: DiYF EC; 20 ng/ml VEGF or 1 mM MnCl2
Experimental: as §1

[6] = biological target: T1, αvβ3 integrin; assay: WOW-1 binding assay, mouse lung endothelial cells; format: cell-based; conditions: WT EC; 20 ng/ml VEGF or 1 mM MnCl2
Experimental: (§2) Wild type and DiYF mouse lung endothelial cells were serum starved for 4 h and further stimulated with 20 ng/ml VEGF-165, 20 ng/ml b-FGF or 1 mm MnC12 separately. WoW-1 Fab was added at a final concentration of […], followed by addition of Fluorescein isothiocyanate (FITC) conjugated goat anti-mouse IgG at 10 μg/ml. After 30 min cells were fixed with 3.7% formaldehyde/PBS for 15 min, washed twice with 1×PBS and FACS was performed using a FACS Calibur (Becton Dickinson, San Jose, Calif.) instrument and data were analyzed using CellQuest software program.

[7] = system: αvβ3 integrin; assay: WOW-1 binding assay, mouse lung endothelial cells; format: cell-based; conditions: DiYF EC; 20 ng/ml VEGF or 1 mM MnCl2
Experimental: as §2

Row | Molecule | apoptosis in melanoma cells compared to a control [1] | angiogenesis of the mouse aortic rings (microvessel outgrowth) [2] | tumor progression compared to a control [3] | also measured
1 | HIV-TAT-(NPLXK) ({HIV‑TAT}-NPL[Gla]K; not fully specified; printed as HIV-TAT-(NPLXK); listed as Homo sapiens) [07-240, X is γ-carboxyglutamic acid] | induced apoptosis | – | – | –
2 | RRRKKRKRRR cyclic (NPLXK) (RRRKKRKRRRNPL[Gla]K; disulfide (positions not given here); not fully specified; listed as Homo sapiens) [inhibiting peptide 3, X is γ-carboxyglutamic acid] | – | inhibited angiogenesis | substantially reduced tumor progression | –
3 | RRRKKRKRRR cyclic (NITXR) (RRRKKRKRRRNIT[Gla]R; disulfide (positions not given here); not fully specified; also: cyclic, closure not given here; listed as Homo sapiens) [inhibiting peptide 4, X is γ-carboxyglutamic acid] | – | inhibited angiogenesis | substantially reduced tumor progression | –
4 | RR cyclic (NPLXK) (RRNPL[Gla]K; disulfide (positions not given here); also: NPLXK part cyclic via disulfide bridge, no Cys in given letters; listed as Homo sapiens) [inhibiting peptide 1, X is γ-carboxyglutamic acid] | – | inhibited angiogenesis | substantially reduced tumor progression | –
5 | RR cyclic (NITXR) (RRNIT[Gla]R; disulfide (positions not given here); not fully specified; printed as RR cyclic (NITXR); also: cyclic, closure not given here; listed as Homo sapiens) [inhibiting peptide 2, X is γ-carboxyglutamic acid] | – | inhibited angiogenesis | substantially reduced tumor progression | –
6 | HIV-TAT-(NPLDK) (listed as Homo sapiens) [07-241] | induced apoptosis | – | – | –
7 | HIV-TAT-(NITXR) ({HIV‑TAT}-NIT[Gla]R; not fully specified; printed as HIV-TAT-(NITXR); listed as Homo sapiens) [07-243, X is γ-carboxyglutamic acid] | induced apoptosis | – | – | –
8 | [Cl][Mn][Cl] [MnCl2] | – | – | – | increase of fibrinogen binding [4]: at least 40 fold; increase of fibrinogen binding [5]: 17 fold; increase in WOW-1 binding [6]: 30 fold; increase in WOW-1 binding [7]: 14 fold
9 | RR linear (NITXR) (RRNIT[Gla]R; listed as Homo sapiens) [inhibiting peptide 6, X is γ-carboxyglutamic acid] | – | – | substantially reduced tumor progression | –
10 | HIV-TAT-(NITDR) (listed as Homo sapiens) [07-244] | induced apoptosis | – | – | –
